Values after ≈ are worked out from the molar mass of the structure shown.
Tested on: aqueous solubility, 1x PBS pH 7.4, UV, 18 h
Assay: aqueous solubility in phosphate buffer, ADME assay, biophysical, 1x PBS (AID 463237)
Details: at 100 µM; stronger effect = higher value

solubility: 0.014 mg/mL (≈ 36.1 µM)
Structure (SMILES): CCCCn1c(NC(=O)c2ccc(F)cc2)c(C#N)c2nc3ccccc3nc21

Source: PubChem BioAssay AID463237 (Sanford-Burnham Center for Chemical Genomics, 2010)
